According to paper PMC3866116 (PLoS ONE, 2013):
Like-named read-outs stand apart in the source and are kept apart here.

Columns and labels:
[1] = Cytotoxicity (MTS assay) in Huh7/Rep-Feo replicon cells; type: cell-based; details: human, Huh7/Rep-Feo cells, MTS, read-out: CC50, fifty percent cytotoxicity concentration based on the reduction in cell viability
Protocol: (§1) The replicon cells were seeded at a density of 1×10^4 cells per well in a 96-well plate and then incubated at 37°C for 24 h. […] Cell viability was measured using a dimethylthiazol carboxymethoxy-phenylsulfophenyl tetrazolium (MTS) assay with a CellTiter 96 aqueous one-solution cell proliferation assay kit (Promega).

[2] = system: HCV subgenomic replicon RNA of genotype 1b strain N (Huh7/Rep-Feo cells); assay: Luciferase assay in HCV subgenomic replicon cell line Huh7/Rep-Feo; type: cell-based, hepatitis C virus; details: Huh7/Rep-Feo; for EC50: subgenome, read-out: EC50, fifty percent effective concentration based on the inhibition of HCV replication; for EC50 / SI, selectivity index (CC50/EC50): strain N (1b)
Protocol: (§2) The Huh7/Rep-Feo cell line, which harbors the subgenomic replicon RNA composed of HCV IRES, the gene of the fusion protein consisting of neomycin phosphotransferase and firefly luciferase, EMCV IRES and a nonstructural gene of genotype 1b strain N in order in Huh7 cell line, was previously established. Thus, the luciferase activity corresponds to the level of HCV RNA replication. The cell line was maintained in Dulbecco's modified Eagle medium containing 10% fetal calf serum and 0.5 mg/mL G418 and cultured in absence of G418 when they were treated with compounds. The Lunet/Con1LUN Sb #26 cell line, which harbors the subgenomic replicon RNA of the Con1 strain (genotype 1b), was described previously. The OR6 cell line, which harbors the full genomic replicon RNA of the O strain (genotype 1b), was described previously. The HCV replicon cell line derived from the genotype 2a strain JFH1 was described previously. The viral RNA derived from the plasmid pJFH1 was transcribed and introduced into Huh7OK1 cells according to the method of Wakita et al.. The virus was amplified by the several times passages. The cells were infected with the virus at a multiplicity of infection (moi) of 1 and then treated with each compound at 24 h post-infection. The culture supernatants were harvested 72 h post-treatment to estimate the viral RNA as described below.
(§3) The replicon cells were seeded at 2×10^4 cells per well in a 48-well plate 24 h before treatment. […] The resulting cells were harvested 72 h post-treatment and lysed with cell culture lysis reagent (Promega, Madison, WI). The luciferase activity of each cell lysate was estimated using a luciferase assay system (Promega). The resulting luminescence was detected by a Luminescencer-JNR AB-2100 (ATTO, Tokyo, Japan).

Huh7/Rep-Feo cells = assay: Cytotoxicity (MTS assay) in Huh7/Rep-Feo replicon cells; type: cell-based; details: Huh7/Rep-Feo cells, 72 h, MTS; read-out: CC50, fifty percent cytotoxicity concentration based on the reduction in cell viability
Protocol: as §1

ISRE-promoter activity = assay: ISRE reporter assay in Huh7 OK1 cells; type: cell-based; details: 48 h of treatment, interferon alpha 2b as positive control
[3] = system: HCV subgenomic replicon RNA of the Con1 strain (genotype 1b); assay: Luciferase assay in Con1 LUN Sb #26 replicon cells; type: cell-based, hepatitis C virus
Protocol: as §2, with “The cells were infected with the virus at a multiplicity of infection (moi) of 1 and then treated with each compound at 24 h post-infection. The culture supernatants were harvested 72 h post-treatment to estimate the viral RNA as described below.” left out
(§4) The replicon cells were seeded at 2×10^4 cells per well in a 48-well plate 24 h before treatment. […] The resulting luminescence was detected by a Luminescencer-JNR AB-2100 (ATTO, Tokyo, Japan).

EMCV or HCV IRES = assay: Effect on IRES-dependent translation in transfected Huh7 cells; type: cell-based; details: 40 µg/ml, 72 h
Protocol: (§5) Huh7 OK1 cells were transfected with pEF.Rluc.HCV.IRES.Feo or pEF.Rluc.EMCV.IRES.Feo [39]. These transfected cells were seeded at 2×10^4 cells per well in a 48-well plate 24 h before treatment, treated with DMSO or compound 10, and then harvested at 72 h post-treatment. The firefly luciferase activities were measured with a luciferase assay system (Promega). The total protein concentration was measured using the BCA Protein Assay Reagent Kit (Thermo Scientific, Rockford, IL, USA) to normalize luciferase activity. To evaluate the interferon response, Huh7OK1 cells were seeded on a 48 well plate at a density of 2×10^4 cells per well, and transfected with pISRE-TA-Luc (Takara bio, Shiga, Japan) and phRG-TK (Promega). These transfected cells were incubated in the presence of compounds, IFN-α 2b, or DMSO, and then harvested at 48 h post-treatment. The firefly luciferase and Renilla luciferase activities were quantified by using Dual luciferase reporter assay system (Promega).

[4] = system: HCVcc derived from JFH-1 strain; assay: HCVcc virus production in Huh7 OK1 cells (supernatant viral RNA by qRT-PCR); type: cell-based; details: Hepatitis C virus, 24 h, read-out: EC50 of HCV viral production
Protocol: as §2, with “below. […]” for “below.”

[5] = system: firefly and Renilla luciferases; assay: Effect on firefly and Renilla luciferase activities in transfected Huh7 cells; type: cell-based; details: 40 µg/ml, 72 h
Protocol: as §5

[6] = system: HCV full genomic replicon RNA of the O strain (genotype 1b); assay: Luciferase assay in OR6 full genome replicon cells; type: cell-based, hepatitis C virus
Protocol: as §2, with “The cells were infected with the virus at a multiplicity of infection (moi) of 1 and then treated with each compound at 24 h post-infection. The culture supernatants were harvested 72 h post-treatment to estimate the viral RNA as described below.” left out
as §4

[7] = system: HCV subgenomic replicon of genotype 2a strain JFH1; assay: Luciferase assay in genotype 2a JFH1 replicon cells; type: cell-based, hepatitis C virus; details: Huh7 Rep/Reo-2a, JFH1 (2a)
Protocol: as §2, with “The cells were infected with the virus at a multiplicity of infection (moi) of 1 and then treated with each compound at 24 h post-infection. The culture supernatants were harvested 72 h post-treatment to estimate the viral RNA as described below.” left out
as §4

HCV NS3 = assay: Western blotting of NS3 in Huh7/Rep-Feo cells; type: cell-based, hepatitis C virus; details: Huh7/Rep-Feo cells treated 72 h, dose-dependent
Protocol: Western blotting was carried out by the method described previously. The antibodies to NS3 (clone 8G-2, mousemonoclonal, Abcam, Cambridge, UK), and beta-actin were purchased from Cell Signaling Technology (rabbit polyclonal, Danvers, MA, USA) and were used as the primary antibodies in this study.

[8] = system: HCV subgenomic replicon RNA of genotype 1b strain Con1; assay: Drug combination analysis (CalcuSyn) in Con1 LUN Sb #26 replicon cells; type: cell-based, hepatitis C virus; details: 72 h; for effect of combination with compound 10 on inhibition of HCV replication (combination index at EC50, EC75, EC90): CI <0.9 synergy, 0.9 to 1.1 additivity, >1.1 antagonism; for isobologram: location of calculated EC90 plots for combination with compound 10: under additive line = synergy, above = antagonism
Protocol: as §3
The effects of drug-drug combinations were evaluated by using the Con1 LUN Sb #26 replicon cells, and were analyzed by using the computer software CalcuSyn (Biosoft, Cambridge, United Kingdom). Dose inhibition curves of two different drugs were plotted with each other. In each drug combination, EC90 values of several combinations of two different drugs were plotted as the fractional concentration (FC) of both drugs on the x and y-axes. Additivity indicates the line linked between 1.0 FC value points of both drugs in the absence of each other. Synergy and antagonism are indicated by values plotted under and above, respectively, an additivity line. The explanatory diagram of isobologram is shown in a right end of lower panels of Figure 5A. Combination indexes (CIs) were calculated at the EC50, EC75, and EC90 by using CalcuSyn. A CI value of less than 0.9 indicates synergy. A CI value ranging from 0.9 to 1.1 indicates additivity. A CI value of more than 1.1 indicates antagonism. The explanatory diagram was shown in a right end of lower panels of Figure 5B.

## O=C(O)/C=C/c1ccc(O)c(O)c1 [Compound 2, caffeic acid]
[1]; Huh7/Rep-Feo replicon cells
  CC50 at 72 h: > 320 µM
[2]; Hepatitis C virus, Huh-7, 72 h
  EC50: 36.6 ± 6.7 µM
[2]
  SI, selectivity index (CC50/EC50): >8.7

## COc1cc(/C=C/C(=O)O)ccc1O [Compound 3, ferulic acid]
Huh7/Rep-Feo cells
  CC50: > 320 µM
[2]; 72 h
  EC50: 71.9 ± 5.8 µM

## O=C(C=Cc1ccccc1)OCCc1ccccc1 [Compound 4, Cinnamic acid phenethyl ester]
Huh7/Rep-Feo cells
  CC50: > 320 µM
[2]; 72 h
  EC50: 86.1 ± 6.3 µM

## O=C(/C=C/c1ccc(O)c(O)c1)O[C@@H]1C[C@](O)(C(=O)O)C[C@@H](O)[C@H]1O [Compound 5, chlorogenic acid]
[1]; Huh7/Rep-Feo replicon cells
  CC50 at 72 h: > 320 µM
[2]; Hepatitis C virus, Huh-7, 72 h
  EC50: 103 ± 3.4 µM
[2]
  SI, selectivity index (CC50/EC50): >3.1

## O=C(/C=C/c1ccc(O)c(O)c1)O[C@H](Cc1ccc(O)c(O)c1)C(=O)O [Compound 6, Rosmarinic acid]
[1]
  CC50 at 72 h: > 320 µM
[2]; Hepatitis C virus, Huh-7, 72 h
  EC50: 110 ± 1.1 µM
[2]
  SI, selectivity index (CC50/EC50): >2.9
ISRE-promoter activity
  effect on ISRE-promoter activities: no significant effects

## COC(=O)/C=C/c1ccc(O)c(O)c1 [Compound 7, caffeic acid methyl ester]
Huh7/Rep-Feo cells
  CC50: 122 ± 5 µM
[2]; 72 h
  EC50: 28.6 ± 1.2 µM

## CCCCCCCCOC(=O)/C=C/c1ccc(O)c(O)c1 [Compound 10, Caffeic acid n-octyl ester]
[1]; Huh7/Rep-Feo replicon cells
  CC50 at 72 h: 71.7 ± 8.5 µM
[2]; Hepatitis C virus, Huh-7, 72 h
  EC50: 2.7 ± 0.1 µM
[2]
  SI, selectivity index (CC50/EC50): 26.6
[2]; various concentrations (compound 1: 1.3 to 40 µM), 72 h, dose-dependent
  HCV RNA replication (luciferase activity): reduced
[3]; Con1 LUN Sb #26, Con1 (1b)
  SI, selectivity index (CC50/EC50): 63.1
[3]; Hepatitis C virus, Con1 LUN Sb #26, subgenome, Con1 (1b), 72 h, read-out: EC50, fifty percent effective concentration based on the inhibition of HCV replication
  EC50: 1 ± 0.1 µM
EMCV or HCV IRES
  IRES-dependent translation: not effect
ISRE-promoter activity
  effect on ISRE-promoter activities: no significant effects
[4]
  EC50: 1.8 ± 0.4 µM
[5]
  enzymatic activities of firefly and Renilla luciferases: not effect
[6]; Hepatitis C virus, OR6, full genome, O (1b), 72 h, read-out: EC50, fifty percent effective concentration based on the inhibition of HCV replication
  EC50: 1.5 ± 0.4 µM
[6]; OR6, O (1b)
  SI, selectivity index (CC50/EC50): 41.1
[7]; Hepatitis C virus, Huh-7, subgenome, 72 h, read-out: EC50, fifty percent effective concentration based on the inhibition of HCV replication
  EC50: 1 ± 0.3 µM
[7]
  SI, selectivity index (CC50/EC50): 60.0
HCV NS3
  NS3 protein level: reduced

## COC(=O)CCc1ccc(O)c(O)c1 [Compound 12, Dihydrocaffeic acid methyl ester]
Huh7/Rep-Feo cells
  CC50: 141 ± 3.4 µM
[2]; 72 h
  EC50: 77 ± 1.6 µM

## CCCCCCCCOC(=O)/C=C/c1ccc(O)c(OC)c1 [Compound 13, 3-O-methylcaffeic acid n-octyl ester]
[1]; Huh7/Rep-Feo replicon cells
  CC50 at 72 h: 60.3 ± 1.6 µM
[2]; Hepatitis C virus, Huh-7, 72 h
  EC50: 10.2 ± 1.1 µM
[2]
  SI, selectivity index (CC50/EC50): 5.9

## CCCCCCCCOC(=O)/C=C/c1ccc(OC)c(O)c1 [Compound 14, 4-O-methylcaffeic acid n-octyl ester]
[1]; Huh7/Rep-Feo replicon cells
  CC50 at 72 h: 59.2 ± 1.4 µM
[2]; Hepatitis C virus, Huh-7, 72 h
  EC50: 19.6 ± 0.8 µM
[2]
  SI, selectivity index (CC50/EC50): 3

## CCCCCCCCOC(=O)C=Cc1cc(O)c(O)c(O)c1 [Compound 16, 3,4,5-Trihydroxycinnamic acid n-octyl ester]
[1]; Huh7/Rep-Feo replicon cells
  CC50 at 72 h: 59.8 ± 6.9 µM
[2]; Hepatitis C virus, Huh-7, 72 h
  EC50: 36.3 ± 2.9 µM
[2]
  SI, selectivity index (CC50/EC50): 1.6

## CC(C)(C)C#Cc1cc(N(C(=O)[C@H]2CC[C@H](C)CC2)[C@H]2CC[C@H](O)CC2)c(C(=O)O)s1 [VX-222]
[8]
  effect of combination with compound 10 on inhibition of HCV replication (combination index at EC50, EC75, EC90): additive to synergistic effect
  isobologram: location of calculated EC90 plots for combination with compound 10: under the additive line

## COC(=O)N[C@H](C(=O)N1CCC[C@H]1c1nc(-c2ccc(-c3ccc(-c4c[nH]c([C@@H]5CCCN5C(=O)[C@@H](NC(=O)OC)C(C)C)n4)cc3)cc2)c[nH]1)C(C)C [daclatasvir]
[8]
  effect of combination with compound 10 on inhibition of HCV replication (combination index at EC50, EC75, EC90): strong synergistic effect
  isobologram: location of calculated EC90 plots for combination with compound 10: under the additive line

## CC(C)(C)OC(=O)N[C@H]1CCCCC/C=C\[C@@H]2C[C@@]2(C(=O)NS(=O)(=O)C2CC2)NC(=O)[C@@H]2C[C@@H](OC(=O)N3Cc4cccc(F)c4C3)CN2C1=O [danoprevir]
[8]
  effect of combination with compound 10 on inhibition of HCV replication (combination index at EC50, EC75, EC90): antagonistic to additive effect
  isobologram: location of calculated EC90 plots for combination with compound 10: above the additive line

## CCC[C@H](NC(=O)[C@@H]1[C@H]2CCC[C@H]2CN1C(=O)[C@@H](NC(=O)[C@@H](NC(=O)c1cnccn1)C1CCCCC1)C(C)(C)C)C(=O)C(=O)NC1CC1 [telaprevir]
[8]
  effect of combination with compound 10 on inhibition of HCV replication (combination index at EC50, EC75, EC90): antagonistic effect
  isobologram: location of calculated EC90 plots for combination with compound 10: above the additive line
